# Where two headings read alike, the source gives them in different places. Marks after values point to notes of the source that are not given here.
# What was measured:
# GRPR = target: T1, GRPR (Homo sapiens, UniProt P30550); experiment: GRPR binding affinity and kinetics on PC-3 cells (LigandTracer); conditions: 1-3 nM radioligand
# T1 construct: host or cells: PC-3 human prostate adenocarcinoma cells
# Protocol: For evaluation of the receptor affinity and binding kinetics, PC-3 cells were seeded in 100 mm Nunc™ Petri dishes (Thermo Fisher, Waltham, MA, USA). A LigandTracer Yellow device (Ridgeview Instruments AB, Uppsala, Sweden) was used to measure the radiation from the Petri dish. Background with RPMI-1640 medium was measured for 30 min, after which 1 nM of radioligand was added and measured for 2 h. An additional concentration (3 nM) was measured for another 2 h, thereafter the medium was aspirated, replaced with fresh medium, and left running overnight to measure the dissociation rate. Data was fitted with the TracerDrawer software (Ridgeview Instruments AB, Uppsala, Sweden).
# PC-3 xenografts = experiment: in vivo; parameters: species or system BALB/c nu/nu female mice; conditions: mouse
# Description: (§1) Animal experiments were planned and performed in accordance with national legislation on protection of laboratory animals, and protocols were approved by the Ethics Committee for Animal Research in Uppsala, Sweden (5.8.18–00473/2021). BALB/c nu/nu female mice were xenografted by subcutaneous injection of PC-3 cells on the hind leg (7 × 10^6 cells/mouse). At the date of the experiment, approximately 6 weeks after implantation, tumour sizes reached 0.11 ± 0.05 g. Groups of four mice were used for each time point. In the first group, mice were iv injected with test radiopeptide (30 kBq in 100 µL PBS supplemented with 1% bovine serum albumin (BSA), corresponding to 40 pmol) and euthanized at 4 h pi. Tumors and relevant organs were collected, weighted and sample radioactivity was measured using the gamma counter. In the case of [^111In]In-AU-SAR-M1 two additional mice groups underwent the same procedure but were euthanized either at 24 h pi, or at 4 h pi following radioligand co-injection with excess (5 nmol) NOTA-PEG2-RM26 to determine the in vivo GRPR-specificity. For statistical analysis Two-Way Anova with Tuckey’s post hock analysis was employed, using GraphPad Prism 7 for Windows® (GraphPad Software, Boston, Massachusetts USA).
# in vivo = experiment: in vivo; parameters: species or system BALB/c nu/nu female mice; conditions: female, BALB/c nu/nu, mouse, iv, total radioactivity
# Description: as §1
# [1] = 1:2 model for M1 and M3, 1:1 model for M2, read-out: KD1
# [2] = female, BALB/c nu/nu, iv, 40 pmol, 4 h
# [3] = 40 pmol, GI (gastrointestinal tract) uptake
# [4] = 40 pmol, Small intestines uptake
# [5] = 40 pmol, Tumor-to-kidneys ratio
# [6] = 40 pmol, Tumor-to-pancreas ratio
# T1 sequence (P30550 whole entry): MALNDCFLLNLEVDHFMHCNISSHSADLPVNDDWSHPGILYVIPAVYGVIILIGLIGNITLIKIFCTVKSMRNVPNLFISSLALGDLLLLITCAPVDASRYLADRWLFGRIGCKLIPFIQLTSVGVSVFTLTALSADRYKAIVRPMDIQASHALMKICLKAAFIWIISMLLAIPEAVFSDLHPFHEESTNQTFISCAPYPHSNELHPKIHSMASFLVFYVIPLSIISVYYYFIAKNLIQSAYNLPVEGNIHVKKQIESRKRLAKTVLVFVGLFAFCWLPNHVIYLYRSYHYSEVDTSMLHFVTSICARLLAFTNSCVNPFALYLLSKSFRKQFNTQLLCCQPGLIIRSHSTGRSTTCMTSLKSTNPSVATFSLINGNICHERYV
compound,measurement,setting,value
"CCNC(=O)[C@H](CC(C)C)NC(=O)[C@H](Cc1c[nH]cn1)NC(=O)CN(C)C(=O)[C@@H](NC(=O)[C@H](C)NC(=O)[C@H](Cc1c[nH]c2ccccc12)NC(=O)[C@H](CCC(N)=O)NC(=O)[C@@H](Cc1ccccc1)NC(=O)COCC(=O)Nc1ccc(CNC(=O)CCC(C(=O)O)N2CCN(CC(=O)O)CCN(CC(=O)O)CCN(CC(=O)O)CC2)cc1)C(C)C (stereo partly drawn) [[^111In]In-AU-SAR-M1, [^111In]In-DOTAGA-AMA-DIG-DPhe-Gln-Trp-Ala-Val-Sar-His-Leu-NHEt, metal not drawn]",Kd,GRPR; [1],0.39 nM
same,Kd,"GRPR; 1:2 model, read-out: KD2",1.1 nM
same,Tumor-to-blood ratio,PC-3 xenografts; [2],141 ± 61^a
same,Tumor-to-pancreas ratio,PC-3 xenografts; [2],8 ± 7
same,Tumor-to-blood ratio,"PC-3 xenografts; female, BALB/c nu/nu, iv, 40 pmol, 24 h",557 ± 58^ a
same,Decrease of tumor uptake from 4 h to 24 h pi,PC-3 xenografts,~40%
same,Increase of tumor-to-muscle ratio from 4 h to 24 h pi,PC-3 xenografts,about 1.8 fold
same,Initial pancreas uptake remaining at 24 h pi,PC-3 xenografts,5%
same,Tumor uptake at 24 h pi as % of the 4 h pi value,PC-3 xenografts,57%
same,tissue uptake at 4 h,"in vivo; 40 pmol, Blood uptake",0.08 ± 0.03 %ID/g
same,tissue uptake at 24 h,"in vivo; 40 pmol, Blood uptake",0.01 ± 0.001 %ID/g
same,tissue uptake at 4 h,"in vivo; 40 pmol, Bone uptake",0.3 ± 0.3 %ID/g
same,tissue uptake at 24 h,"in vivo; 40 pmol, Bone uptake",0.04 ± 0.02 %ID/g
same,tissue uptake dose at 4 h,"in vivo; 40 pmol, Carcass uptake",4 ± 2 %ID
same,tissue uptake dose at 24 h,"in vivo; 40 pmol, Carcass uptake",0.48 ± 0.07 %ID
same,tissue uptake dose at 4 h,in vivo; [3],2 ± 0.9 %ID
same,tissue uptake dose at 24 h,in vivo; [3],0.62 ± 0.49 %ID
same,tissue uptake at 4 h,"in vivo; 40 pmol, Kidneys uptake",3.1 ± 0.3 %ID/g
same,tissue uptake at 24 h,"in vivo; 40 pmol, Kidneys uptake",2.38 ± 0.14 %ID/g
same,tissue uptake at 4 h,"in vivo; 40 pmol, Liver uptake",0.2 ± 0.1 %ID/g
same,tissue uptake at 24 h,"in vivo; 40 pmol, Liver uptake",0.09 ± 0.01 %ID/g
same,tissue uptake at 4 h,"in vivo; 40 pmol, Lungs uptake",0.2 ± 0.2 %ID/g
same,tissue uptake at 24 h,"in vivo; 40 pmol, Lungs uptake",0.04 ± 0.003 %ID/g
same,tissue uptake at 4 h,"in vivo; 40 pmol, Muscle uptake",0.09 ± 0.06 %ID/g
same,tissue uptake at 24 h,"in vivo; 40 pmol, Muscle uptake",0.02 ± 0.01 %ID/g
same,tissue uptake at 4 h,"in vivo; 40 pmol, Pancreas uptake",2 ± 1 %ID/g
same,tissue uptake at 24 h,"in vivo; 40 pmol, Pancreas uptake",0.12 ± 0.03 %ID/g
same,tissue uptake at 4 h,in vivo; [4],0.8 ± 0.5 %ID/g
same,tissue uptake at 24 h,in vivo; [4],0.07 ± 0.03 %ID/g
same,tissue uptake at 4 h,"in vivo; 40 pmol, Spleen uptake",0.12 ± 0.05 %ID/g
same,tissue uptake at 24 h,"in vivo; 40 pmol, Spleen uptake",0.1 ± 0.04 %ID/g
same,tissue uptake at 4 h,"in vivo; 40 pmol, Tumor uptake",11 ± 1 %ID/g
same,tissue uptake at 24 h,"in vivo; 40 pmol, Tumor uptake",6.3 ± 0.8 %ID/g
same,tissue to tissue ratio at 4 h,"in vivo; 40 pmol, Tumor-to-blood ratio",160
same,tissue to tissue ratio at 24 h,"in vivo; 40 pmol, Tumor-to-blood ratio",> 550
same,tissue to tissue ratio,"in vivo; 40 pmol, Tumor-to-bone ratio",> 150
same,tissue to tissue ratio at 4 h,"in vivo; 40 pmol, Tumor-to-bone ratio",74 ± 68
same,tissue to tissue ratio at 24 h,"in vivo; 40 pmol, Tumor-to-bone ratio",173 ± 72
same,tissue to tissue ratio at 4 h,in vivo; [5],3.6 ± 0.2
same,tissue to tissue ratio at 24 h,in vivo; [5],2.7 ± 0.2
same,tissue to tissue ratio at 4 h,"in vivo; 40 pmol, Tumor-to-liver ratio",65 ± 22
same,tissue to tissue ratio at 24 h,"in vivo; 40 pmol, Tumor-to-liver ratio",67 ± 6
same,tissue to tissue ratio at 4 h,"in vivo; 40 pmol, Tumor-to-lungs ratio",68 ± 39
same,tissue to tissue ratio at 24 h,"in vivo; 40 pmol, Tumor-to-lungs ratio",174 ± 29
same,tissue to tissue ratio at 4 h,"in vivo; 40 pmol, Tumor-to-muscle ratio",167 ± 102
same,tissue to tissue ratio at 24 h,"in vivo; 40 pmol, Tumor-to-muscle ratio",375 ± 95
same,tissue to tissue ratio at 4 h,in vivo; [6],9 ± 11
same,tissue to tissue ratio at 24 h,in vivo; [6],57 ± 18
same,tissue to tissue ratio at 4 h,"in vivo; 40 pmol, Tumor-to-spleen ratio",61 ± 19
same,tissue to tissue ratio at 24 h,"in vivo; 40 pmol, Tumor-to-spleen ratio",70 ± 20
same,tissue uptake dose at 4 h,in vivo; Carcass uptake,1.1 ± 0.6 %ID
same,tissue uptake dose at 4 h,in vivo; GI (gastrointestinal tract) uptake,1.5 ± 0.3 %ID
"CCNC(=O)[C@H](CC(C)C)NC(=O)[C@H](Cc1c[nH]cn1)NC(=O)CN(C)C(=O)[C@@H](NC(=O)[C@H](C)NC(=O)[C@H](Cc1c[nH]c2ccccc12)NC(=O)[C@H](CCC(N)=O)NC(=O)[C@@H](Cc1ccccc1)NC(=O)COCC(=O)Nc1ccc(CNC(=O)[C@H](CCCNC(=N)N)NC(=O)CCC(C(=O)O)N2CCN(CC(=O)O)CCN(CC(=O)O)CCN(CC(=O)O)CC2)cc1)C(C)C (stereo partly shown) [[^111In]In-AU-SAR-M2, [^111In]In-[DOTAGA-Arg]AU-SAR-M1, metal not drawn]",Kd,GRPR; [1],0.031 nM
same,Tumor-to-small intestines ratio,PC-3 xenografts,6 ± 2
same,tissue uptake at 4 h,"in vivo; 40 pmol, Blood uptake",0.08 ± 0.01 %ID/g
same,tissue uptake at 4 h,"in vivo; 40 pmol, Bone uptake",0.23 ± 0.04 %ID/g
same,tissue uptake dose at 4 h,"in vivo; 40 pmol, Carcass uptake",4 ± 2 %ID
same,tissue uptake dose at 4 h,in vivo; [3],2.9 ± 0.3 %ID
same,tissue uptake at 4 h,"in vivo; 40 pmol, Kidneys uptake",3.4 ± 0.4 %ID/g
same,tissue uptake at 4 h,"in vivo; 40 pmol, Liver uptake",0.3 ± 0.1 %ID/g
same,tissue uptake at 4 h,"in vivo; 40 pmol, Lungs uptake",0.2 ± 0.1 %ID/g
same,tissue uptake at 4 h,"in vivo; 40 pmol, Muscle uptake",0.09 ± 0.04 %ID/g
same,tissue uptake at 4 h,"in vivo; 40 pmol, Pancreas uptake",9 ± 2 %ID/g
same,tissue uptake at 4 h,in vivo; [4],2.4 ± 0.9 %ID/g
same,tissue uptake at 4 h,"in vivo; 40 pmol, Spleen uptake",0.3 ± 0.1 %ID/g
same,tissue uptake at 4 h,"in vivo; 40 pmol, Tumor uptake",12.7 ± 0.8 %ID/g
same,tissue to tissue ratio at 4 h,"in vivo; 40 pmol, Tumor-to-blood ratio",159 ± 32
same,tissue to tissue ratio at 4 h,"in vivo; 40 pmol, Tumor-to-bone ratio",58 ± 12
same,tissue to tissue ratio at 4 h,in vivo; [5],3.8 ± 0.6
same,tissue to tissue ratio at 4 h,"in vivo; 40 pmol, Tumor-to-liver ratio",47 ± 14
same,tissue to tissue ratio at 4 h,"in vivo; 40 pmol, Tumor-to-lungs ratio",63 ± 22
same,tissue to tissue ratio at 4 h,"in vivo; 40 pmol, Tumor-to-muscle ratio",161 ± 74
same,tissue to tissue ratio at 4 h,in vivo; [6],1.4 ± 0.3
same,tissue to tissue ratio at 4 h,"in vivo; 40 pmol, Tumor-to-spleen ratio",46 ± 11
"CCNC(=O)[C@H](CC(C)C)NC(=O)[C@H](Cc1c[nH]cn1)NC(=O)CN(C)C(=O)[C@@H](NC(=O)[C@H](C)NC(=O)[C@H](Cc1c[nH]c2ccccc12)NC(=O)[C@H](CCC(N)=O)NC(=O)[C@@H](Cc1ccccc1)NC(=O)COCC(=O)Nc1ccc(CNC(=O)[C@@H](CCCNC(=N)N)NC(=O)CCC(C(=O)O)N2CCN(CC(=O)O)CCN(CC(=O)O)CCN(CC(=O)O)CC2)cc1)C(C)C (stereo partly shown) [[^111In]In-AU-SAR-M3, [^111In]In-[DOTAGA-DArg]AU-SAR-M1, metal not drawn]",Kd,GRPR; [1],0.3 nM
same,Kd,"GRPR; read-out: KD2, 1:2 model",1.1 nM
same,Tumor-to-small intestines ratio,PC-3 xenografts,25 ± 7
same,tissue uptake at 4 h,"in vivo; 40 pmol, Blood uptake",0.05 ± 0.01 %ID/g
same,tissue uptake at 4 h,"in vivo; 40 pmol, Bone uptake",0.17 ± 0.04 %ID/g
same,tissue uptake dose at 4 h,"in vivo; 40 pmol, Carcass uptake",2.1 ± 0.2 %ID
same,tissue uptake dose at 4 h,in vivo; [3],0.7 ± 0.2 %ID
same,tissue uptake at 4 h,"in vivo; 40 pmol, Kidneys uptake",5 ± 0.5 %ID/g
same,tissue uptake at 4 h,"in vivo; 40 pmol, Liver uptake",0.25 ± 0.02 %ID/g
same,tissue uptake at 4 h,"in vivo; 40 pmol, Lungs uptake",0.15 ± 0.03 %ID/g
same,tissue uptake at 4 h,"in vivo; 40 pmol, Muscle uptake",0.07 ± 0.03 %ID/g
same,tissue uptake at 4 h,"in vivo; 40 pmol, Pancreas uptake",0.5 ± 0.1 %ID/g
same,tissue uptake at 4 h,in vivo; [4],0.2 ± 0.2 %ID/g
same,tissue uptake at 4 h,"in vivo; 40 pmol, Spleen uptake",0.18 ± 0.03 %ID/g
same,tissue uptake at 4 h,"in vivo; 40 pmol, Tumor uptake",6.7 ± 0.3 %ID/g
same,tissue to tissue ratio at 4 h,"in vivo; 40 pmol, Tumor-to-blood ratio",147 ± 43
same,tissue to tissue ratio at 4 h,"in vivo; 40 pmol, Tumor-to-bone ratio",41 ± 9
same,tissue to tissue ratio at 4 h,in vivo; [5],1.4 ± 0.1
same,tissue to tissue ratio at 4 h,"in vivo; 40 pmol, Tumor-to-liver ratio",27 ± 3
same,tissue to tissue ratio at 4 h,"in vivo; 40 pmol, Tumor-to-lungs ratio",47 ± 14
same,tissue to tissue ratio at 4 h,"in vivo; 40 pmol, Tumor-to-muscle ratio",107 ± 63
same,tissue to tissue ratio at 4 h,in vivo; [6],14 ± 3
same,tissue to tissue ratio at 4 h,"in vivo; 40 pmol, Tumor-to-spleen ratio",39 ± 8

# Source: article PMC10873254, “Preclinical evaluation of new GRPR-antagonists with improved metabolic stability for radiotheranostic use in oncology” (EJNMMI Radiopharmacy and Chemistry, 2024)
